Test results taken from publication PMC4536133 (Antiviral research, 2015).

Assays:
HSV-1 ICP0 and ICP4 = assay: Immunocytochemistry of HSV-1 immediate early genes ICP0 and ICP4; format: cell-based, herpes simplex virus type 1; conditions: infected cells
HSV-1 [1] = assay: Plaque assay of supernatant of reactivated iPSC-neurons titrated on Vero cells; format: cell-based, herpes simplex virus type 1 (KOS) in human iPSC-neurons; conditions: 5BVdU+IFN-α then drug 48h, NaB reactivation
HSV-1 [2] = assay: Plaque assay of supernatant of HSV-1 infected Vero cells; format: cell-based, herpes simplex virus type 1 (KOS) in Vero cells
HSV-1 [3] = assay: qPCR for HSV-1 DNA copy number in iPSC-neurons; format: cell-based, herpes simplex virus type 1 (KOS) in human iPSC-neurons; conditions: acutely infected iPSC-neurons, 24hpi, 50 μM; untreated 3,461,970
HSV-1 [4] = assay: Reactivation of quiescent HSV-1 infection in iPSC-neurons, flow cytometry; format: cell-based, herpes simplex virus type 1 (KOS) in human iPSC-neurons; conditions: compared to vehicle
HSV-1 [5] = assay: FISH analysis of HSV-1 viral DNA in infected cells; format: cell-based, herpes simplex virus type 1; conditions: HSV-1 infected cells
VZV = VZV infection of ARPE-19 cells, luciferase activity; format: cell-based; conditions: PAA

Compound | expression of HSV-1 immediate early genes ICP0 and ICP4 (HSV-1 ICP0 and ICP4) | infectious particles in supernatant of treated infected cultures (plaque assay) (HSV-1 [2]; 50 μM) | viral DNA copy number by FISH (HSV-1 [5]) | further results
Nc1nc2c(ncn2COCCO)c(=O)[nH]1 [ACV, Acyclovir] | markedly reduced expression | undetectable | substantial reduction | infectious viral particles in supernatant after reactivation (HSV-1 [1]): no detectable infectious viral particles; number of copies of viral DNA in 5 ng of total DNA (HSV-1 [3]): 483 copies; mean intensity of fluorescence (MFI) after reactivation (HSV-1 [4]): lowered
CO/C1=C\C(C)=C\[C@@H](C)[C@@H](O)[C@@H](C)C/C(C)=C/C=C/[C@H](OC)[C@@H]([C@@H](C)[C@@H](O)[C@H](C)[C@@]2(O)C[C@@H](O)[C@H](C)[C@@H](C(C)C)O2)OC1=O [BFLA, bafilomycin A1] |  |  |  | infectious particles in supernatant of treated infected cultures (plaque assay) (HSV-1 [2]; BFLA 0.1 μM): undetectable
CCN(CC)CCCC(C)Nc1ccnc2cc(Cl)ccc12 (centres unmarked) [CQ, chloroquine] |  | undetectable |  | 
O=C(O)CP(=O)(O)O [PAA, phosphonoacetic acid] | markedly reduced expression |  | substantial reduction | inhibition of VZV infection (VZV): effectively inhibited
